Data from patent publication US10168342B2, “Lipid probes and uses thereof” (THE SCRIPPS RESEARCH INSTITUTE, priority 2015, dated 2019).

Columns and labels:
Format in all cases: cell-based
[1] = target: T1, lipid-binding proteins in Neuro2a cells (Mus musculus, UniProt Q8VCD6); test: SILAC MS mapping of lipid probe targets (probe-versus-No UV, probe-versus-probe) in Neuro2a cells; conditions: A-DA probe, No UV control, target protein Reep2 (Q8VCD6)
T1 construct: endogenous in cells; host or cells: Neuro2a

[2] = target: T2, lipid-binding proteins in A549 cells (Homo sapiens, UniProt Q99536); test: SILAC MS mapping of UV-dependent lipid probe targets in A549 cells; conditions: A-DA probe vs NoUV
T2 construct: endogenous in cells; host or cells: A549 (PMA-stimulated for the PTGS2 experiments)

[3] = target: T3, lipid-binding proteins in A549 cells (Homo sapiens, UniProt P35354); test: as above
T3 construct: endogenous in cells; host or cells: A549 (PMA-stimulated for the PTGS2 experiments)

[4] = target: T4, lipid-binding proteins in A549 cells (Homo sapiens, UniProt Q8NF37); test: as above; conditions: A-DA probe vs NoUV
T4 construct: endogenous in cells; host or cells: A549 (PMA-stimulated for the PTGS2 experiments)

[5] = target: T5, lipid-binding proteins in A549 cells (Homo sapiens, UniProt O75911); test: as above; conditions: A-DA probe vs NoUV
T5 construct: endogenous in cells; host or cells: A549 (PMA-stimulated for the PTGS2 experiments)

[6] = target: T6, lipid-binding proteins in A549 cells (Homo sapiens, UniProt P07602); test: as above; conditions: A-DA probe vs NoUV
T6 construct: endogenous in cells; host or cells: A549 (PMA-stimulated for the PTGS2 experiments)

[7] = target: T7, lipid-binding proteins in A549 cells (Homo sapiens, UniProt O95470); test: as above; conditions: A-DA probe vs NoUV
T7 construct: endogenous in cells; host or cells: A549 (PMA-stimulated for the PTGS2 experiments)

[8] = target: T8, lipid-binding proteins in A549 cells (Homo sapiens, UniProt P50402); test: as above; conditions: A-DA probe vs NoUV
T8 construct: endogenous in cells; host or cells: A549 (PMA-stimulated for the PTGS2 experiments)

[9] = target: T9, lipid-binding proteins in A549 cells (Homo sapiens, UniProt P45880); test: as above; conditions: A-DA probe vs NoUV
T9 construct: endogenous in cells; host or cells: A549 (PMA-stimulated for the PTGS2 experiments)

[10] = target: T10, lipid-binding proteins in A549 cells (Homo sapiens, UniProt Q9Y639); test: as above; conditions: A-DA probe vs NoUV
T10 construct: endogenous in cells; host or cells: A549 (PMA-stimulated for the PTGS2 experiments)

[11] = target: T11, lipid-binding proteins in A549 cells (Homo sapiens, UniProt Q9HAW7); test: as above; conditions: A-DA probe vs NoUV
T11 construct: endogenous in cells; host or cells: A549 (PMA-stimulated for the PTGS2 experiments)

[12] = target: T12, lipid-binding proteins in A549 cells (Homo sapiens, UniProt Q53GQ0); test: as above; conditions: A-DA probe vs NoUV
T12 construct: endogenous in cells; host or cells: A549 (PMA-stimulated for the PTGS2 experiments)

[13] = target: T13, lipid-binding proteins in A549 cells (Homo sapiens, UniProt Q5HYK3); test: as above; conditions: A-DA probe vs NoUV
T13 construct: endogenous in cells; host or cells: A549 (PMA-stimulated for the PTGS2 experiments)

[14] = target: T14, lipid-binding proteins in A549 cells (Homo sapiens, UniProt Q9H6K4); test: as above; conditions: A-DA probe vs NoUV
T14 construct: endogenous in cells; host or cells: A549 (PMA-stimulated for the PTGS2 experiments)

[15] = target: T15, lipid-binding proteins in A549 cells (Homo sapiens, UniProt Q8N5I4); test: as above; conditions: A-DA probe vs NoUV
T15 construct: endogenous in cells; host or cells: A549 (PMA-stimulated for the PTGS2 experiments)

[16] = target: T16, lipid-binding proteins in A549 cells (Homo sapiens, UniProt Q96G23); test: as above; conditions: A-DA probe vs NoUV
T16 construct: endogenous in cells; host or cells: A549 (PMA-stimulated for the PTGS2 experiments)

[17] = target: T17, lipid-binding proteins in A549 cells (Homo sapiens, UniProt Q6P1A2); test: as above; conditions: A-DA probe vs NoUV
T17 construct: endogenous in cells; host or cells: A549 (PMA-stimulated for the PTGS2 experiments)

[18] = target: T18, lipid-binding proteins in A549 cells (Homo sapiens, UniProt P21796); test: as above; conditions: A-DA probe vs NoUV
T18 construct: endogenous in cells; host or cells: A549 (PMA-stimulated for the PTGS2 experiments)

[19] = target: T19, lipid-binding proteins in A549 cells (Homo sapiens, UniProt P30519); test: as above; conditions: A-DA probe vs NoUV
T19 construct: endogenous in cells; host or cells: A549 (PMA-stimulated for the PTGS2 experiments)

[20] = target: T20, lipid-binding proteins in A549 cells (Homo sapiens, UniProt Q8IZV5); test: as above; conditions: A-DA probe vs NoUV
T20 construct: endogenous in cells; host or cells: A549 (PMA-stimulated for the PTGS2 experiments)

[21] = target: T21, lipid-binding proteins in A549 cells (Homo sapiens, UniProt O15173); test: as above; conditions: A-DA probe vs NoUV
T21 construct: endogenous in cells; host or cells: A549 (PMA-stimulated for the PTGS2 experiments)

[22] = target: T22, lipid-binding proteins in A549 cells (Homo sapiens, UniProt Q9NX47); test: as above; conditions: A-DA probe vs NoUV
T22 construct: endogenous in cells; host or cells: A549 (PMA-stimulated for the PTGS2 experiments)

[23] = target: T23, lipid-binding proteins in A549 cells (Homo sapiens, UniProt Q15738); test: as above; conditions: A-DA probe vs NoUV
T23 construct: endogenous in cells; host or cells: A549 (PMA-stimulated for the PTGS2 experiments)

[24] = target: T24, lipid-binding proteins in A549 cells (Homo sapiens, UniProt Q9NS69); test: as above; conditions: A-DA probe vs NoUV
T24 construct: endogenous in cells; host or cells: A549 (PMA-stimulated for the PTGS2 experiments)

[25] = target: T25, lipid-binding proteins in A549 cells (Homo sapiens, UniProt Q7Z2K6); test: as above; conditions: A-DA probe vs NoUV
T25 construct: endogenous in cells; host or cells: A549 (PMA-stimulated for the PTGS2 experiments)

[26] = target: T26, lipid-binding proteins in A549 cells (Homo sapiens, UniProt Q86XL3); test: as above; conditions: A-DA probe vs NoUV
T26 construct: endogenous in cells; host or cells: A549 (PMA-stimulated for the PTGS2 experiments)

[27] = target: T27, lipid-binding proteins in A549 cells (Homo sapiens, UniProt Q14534); test: as above; conditions: A-DA probe vs NoUV
T27 construct: endogenous in cells; host or cells: A549 (PMA-stimulated for the PTGS2 experiments)

[28] = target: T28, lipid-binding proteins in A549 cells (Homo sapiens, UniProt Q9BTX1); test: as above; conditions: A-DA probe vs NoUV
T28 construct: endogenous in cells; host or cells: A549 (PMA-stimulated for the PTGS2 experiments)

[29] = target: T29, lipid-binding proteins in A549 cells (Homo sapiens, UniProt P07093); test: as above; conditions: protein SERPINE2 (P07093), A-DA probe
T29 construct: endogenous in cells; host or cells: A549 (PMA-stimulated for the PTGS2 experiments)

[30] = target: T30, lipid-binding proteins in A549 cells (Homo sapiens, UniProt P67812); test: as above; conditions: A-DA probe vs NoUV
T30 construct: endogenous in cells; host or cells: A549 (PMA-stimulated for the PTGS2 experiments)

[31] = target: T31, lipid-binding proteins in A549 cells (Homo sapiens, UniProt Q9UH99); test: as above; conditions: protein SUN2 (Q9UH99), A-DA probe
T31 construct: endogenous in cells; host or cells: A549 (PMA-stimulated for the PTGS2 experiments)

[32] = target: T32, lipid-binding proteins in A549 cells (Homo sapiens, UniProt Q96KC8); test: as above; conditions: A-DA probe vs NoUV
T32 construct: endogenous in cells; host or cells: A549 (PMA-stimulated for the PTGS2 experiments)

T3 sequence (P35354 18-604): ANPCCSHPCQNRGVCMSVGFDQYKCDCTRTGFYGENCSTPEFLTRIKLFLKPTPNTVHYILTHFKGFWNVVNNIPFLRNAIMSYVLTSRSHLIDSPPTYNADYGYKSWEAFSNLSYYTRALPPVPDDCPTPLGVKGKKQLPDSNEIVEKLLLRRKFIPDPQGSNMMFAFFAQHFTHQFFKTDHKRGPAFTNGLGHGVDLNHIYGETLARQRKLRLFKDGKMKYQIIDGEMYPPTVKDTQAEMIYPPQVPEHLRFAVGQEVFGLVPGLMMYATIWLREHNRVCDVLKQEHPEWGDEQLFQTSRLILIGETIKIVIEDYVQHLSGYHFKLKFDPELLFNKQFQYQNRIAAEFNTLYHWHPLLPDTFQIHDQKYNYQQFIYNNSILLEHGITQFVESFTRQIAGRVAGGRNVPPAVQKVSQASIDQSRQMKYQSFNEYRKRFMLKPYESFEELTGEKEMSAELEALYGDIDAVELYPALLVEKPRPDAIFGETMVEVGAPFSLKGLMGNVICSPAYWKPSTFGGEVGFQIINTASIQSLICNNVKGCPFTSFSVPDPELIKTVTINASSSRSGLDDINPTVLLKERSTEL
T6 sequence (P07602 60-524): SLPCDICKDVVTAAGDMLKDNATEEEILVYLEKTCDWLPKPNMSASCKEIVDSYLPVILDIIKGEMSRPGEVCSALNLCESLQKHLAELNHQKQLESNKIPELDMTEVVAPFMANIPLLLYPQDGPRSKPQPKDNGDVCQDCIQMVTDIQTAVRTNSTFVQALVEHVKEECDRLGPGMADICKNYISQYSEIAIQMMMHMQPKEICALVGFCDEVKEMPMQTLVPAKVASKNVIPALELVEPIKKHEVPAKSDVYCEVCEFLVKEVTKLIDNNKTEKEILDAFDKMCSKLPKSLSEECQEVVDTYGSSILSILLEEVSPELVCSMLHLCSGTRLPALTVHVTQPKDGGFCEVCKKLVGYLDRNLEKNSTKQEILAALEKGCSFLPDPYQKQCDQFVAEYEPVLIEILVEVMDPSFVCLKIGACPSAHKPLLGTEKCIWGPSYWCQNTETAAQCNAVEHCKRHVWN
T22 sequence (Q9NX47 whole entry): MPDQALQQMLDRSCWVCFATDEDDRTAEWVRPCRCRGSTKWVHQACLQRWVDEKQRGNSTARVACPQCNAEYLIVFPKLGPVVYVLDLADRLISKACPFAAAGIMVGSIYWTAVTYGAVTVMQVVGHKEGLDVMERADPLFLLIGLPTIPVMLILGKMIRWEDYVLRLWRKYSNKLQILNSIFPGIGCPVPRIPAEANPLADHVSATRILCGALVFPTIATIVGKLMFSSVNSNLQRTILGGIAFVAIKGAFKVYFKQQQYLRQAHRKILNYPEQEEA
T4 sequence (Q8NF37 whole entry): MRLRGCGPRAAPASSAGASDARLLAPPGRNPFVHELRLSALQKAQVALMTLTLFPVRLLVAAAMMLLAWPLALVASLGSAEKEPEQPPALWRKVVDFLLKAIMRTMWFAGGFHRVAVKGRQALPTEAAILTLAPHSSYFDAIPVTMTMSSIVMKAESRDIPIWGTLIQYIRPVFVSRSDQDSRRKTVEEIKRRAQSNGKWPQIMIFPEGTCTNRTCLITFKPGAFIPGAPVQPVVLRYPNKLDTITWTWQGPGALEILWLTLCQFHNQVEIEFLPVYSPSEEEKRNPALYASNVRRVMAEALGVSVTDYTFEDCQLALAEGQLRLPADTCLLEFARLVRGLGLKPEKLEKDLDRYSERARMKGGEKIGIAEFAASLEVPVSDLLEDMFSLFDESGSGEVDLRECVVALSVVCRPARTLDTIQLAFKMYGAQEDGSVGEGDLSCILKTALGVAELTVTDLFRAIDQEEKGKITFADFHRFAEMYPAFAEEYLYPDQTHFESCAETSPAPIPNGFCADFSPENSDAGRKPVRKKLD
T9 sequence (P45880 whole entry): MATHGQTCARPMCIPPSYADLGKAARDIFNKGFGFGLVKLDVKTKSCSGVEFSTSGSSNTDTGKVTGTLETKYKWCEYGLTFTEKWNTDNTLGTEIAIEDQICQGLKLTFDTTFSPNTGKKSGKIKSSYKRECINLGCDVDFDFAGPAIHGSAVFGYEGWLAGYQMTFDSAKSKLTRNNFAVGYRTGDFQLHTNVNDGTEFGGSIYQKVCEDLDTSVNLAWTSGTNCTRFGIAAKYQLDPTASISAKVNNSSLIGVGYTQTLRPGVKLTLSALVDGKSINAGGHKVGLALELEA
T30 sequence (P67812 whole entry): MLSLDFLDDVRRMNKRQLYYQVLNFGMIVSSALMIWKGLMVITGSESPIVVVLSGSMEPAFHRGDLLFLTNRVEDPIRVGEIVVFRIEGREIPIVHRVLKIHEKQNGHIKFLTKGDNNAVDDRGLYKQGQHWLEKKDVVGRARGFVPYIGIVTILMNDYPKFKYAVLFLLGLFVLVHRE
T5 sequence (O75911 whole entry): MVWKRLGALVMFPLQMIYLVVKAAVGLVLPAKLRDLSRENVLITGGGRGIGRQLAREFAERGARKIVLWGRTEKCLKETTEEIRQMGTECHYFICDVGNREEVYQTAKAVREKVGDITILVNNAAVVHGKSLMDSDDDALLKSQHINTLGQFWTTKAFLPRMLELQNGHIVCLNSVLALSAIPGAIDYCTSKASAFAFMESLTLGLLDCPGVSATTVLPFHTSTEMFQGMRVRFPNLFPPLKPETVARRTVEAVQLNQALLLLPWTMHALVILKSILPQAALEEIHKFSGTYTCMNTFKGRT
T20 sequence (Q8IZV5 whole entry): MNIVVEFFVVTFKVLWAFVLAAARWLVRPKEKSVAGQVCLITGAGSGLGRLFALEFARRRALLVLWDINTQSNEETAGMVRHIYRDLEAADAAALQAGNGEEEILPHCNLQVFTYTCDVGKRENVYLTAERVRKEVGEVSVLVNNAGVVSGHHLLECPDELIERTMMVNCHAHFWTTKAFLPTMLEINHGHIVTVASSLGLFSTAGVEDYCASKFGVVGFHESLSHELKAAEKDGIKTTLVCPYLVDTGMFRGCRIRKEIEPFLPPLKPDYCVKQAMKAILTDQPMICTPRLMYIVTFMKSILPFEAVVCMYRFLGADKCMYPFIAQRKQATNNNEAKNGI
T28 sequence (Q9BTX1 whole entry): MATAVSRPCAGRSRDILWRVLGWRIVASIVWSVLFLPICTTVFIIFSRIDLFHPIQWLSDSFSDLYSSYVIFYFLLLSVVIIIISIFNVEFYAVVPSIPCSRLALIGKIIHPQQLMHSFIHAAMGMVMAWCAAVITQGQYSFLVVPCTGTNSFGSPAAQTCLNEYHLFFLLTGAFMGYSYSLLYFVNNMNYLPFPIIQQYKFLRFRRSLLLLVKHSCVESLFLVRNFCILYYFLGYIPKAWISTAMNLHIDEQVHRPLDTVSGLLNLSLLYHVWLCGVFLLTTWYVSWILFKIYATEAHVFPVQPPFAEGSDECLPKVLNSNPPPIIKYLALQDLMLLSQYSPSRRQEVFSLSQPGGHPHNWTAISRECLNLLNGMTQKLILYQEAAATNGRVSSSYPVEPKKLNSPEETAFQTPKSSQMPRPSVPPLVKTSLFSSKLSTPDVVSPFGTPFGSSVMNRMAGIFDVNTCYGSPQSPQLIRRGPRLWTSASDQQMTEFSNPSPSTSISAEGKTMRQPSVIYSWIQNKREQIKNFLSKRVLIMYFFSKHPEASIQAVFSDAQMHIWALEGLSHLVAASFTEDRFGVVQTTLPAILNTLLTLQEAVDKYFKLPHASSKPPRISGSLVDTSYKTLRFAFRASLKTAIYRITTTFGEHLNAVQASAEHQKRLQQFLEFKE
T15 sequence (Q8N5I4 whole entry): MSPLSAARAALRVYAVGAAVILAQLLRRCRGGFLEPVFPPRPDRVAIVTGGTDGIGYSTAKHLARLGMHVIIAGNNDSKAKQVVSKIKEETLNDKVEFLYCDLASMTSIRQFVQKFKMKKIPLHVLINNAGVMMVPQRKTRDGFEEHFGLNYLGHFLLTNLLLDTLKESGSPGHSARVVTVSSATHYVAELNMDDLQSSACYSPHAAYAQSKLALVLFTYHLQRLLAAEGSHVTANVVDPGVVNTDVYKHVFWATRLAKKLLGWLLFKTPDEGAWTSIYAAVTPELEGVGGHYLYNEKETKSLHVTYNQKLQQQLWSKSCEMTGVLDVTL
T14 sequence (Q9H6K4 whole entry): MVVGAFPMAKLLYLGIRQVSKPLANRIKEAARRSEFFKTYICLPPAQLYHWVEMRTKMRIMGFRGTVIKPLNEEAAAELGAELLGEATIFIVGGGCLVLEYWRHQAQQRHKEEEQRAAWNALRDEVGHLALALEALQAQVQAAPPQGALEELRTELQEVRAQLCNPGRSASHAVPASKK
T21 sequence (O15173 whole entry): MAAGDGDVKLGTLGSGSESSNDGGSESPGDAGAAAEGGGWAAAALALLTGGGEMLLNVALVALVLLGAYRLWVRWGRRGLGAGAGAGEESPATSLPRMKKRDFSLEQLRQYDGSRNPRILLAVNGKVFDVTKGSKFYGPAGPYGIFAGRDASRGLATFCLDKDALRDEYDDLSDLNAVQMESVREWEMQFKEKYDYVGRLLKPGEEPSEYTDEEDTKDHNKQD
T17 sequence (Q6P1A2 whole entry): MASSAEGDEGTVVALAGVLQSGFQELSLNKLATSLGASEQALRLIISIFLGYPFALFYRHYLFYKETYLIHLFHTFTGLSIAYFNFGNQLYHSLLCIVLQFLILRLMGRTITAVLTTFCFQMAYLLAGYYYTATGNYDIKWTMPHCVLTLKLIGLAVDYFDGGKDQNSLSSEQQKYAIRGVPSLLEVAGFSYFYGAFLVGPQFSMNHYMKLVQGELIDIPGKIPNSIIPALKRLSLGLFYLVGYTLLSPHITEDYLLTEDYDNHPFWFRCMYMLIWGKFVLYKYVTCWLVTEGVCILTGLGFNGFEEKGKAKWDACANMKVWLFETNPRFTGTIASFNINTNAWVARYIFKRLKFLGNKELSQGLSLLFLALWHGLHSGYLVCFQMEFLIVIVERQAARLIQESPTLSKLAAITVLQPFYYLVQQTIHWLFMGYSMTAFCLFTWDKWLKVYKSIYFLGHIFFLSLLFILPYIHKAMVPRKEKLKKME

C#CCCC/C=C\C/C=C\C/C=C\C/C=C\CCCC(=O)NCCC1(C)N=N1 [A-DA, (5Z,8Z,11Z,14Z)-N-(2-(3-methyl-3H-diazirin-3-yl)ethyl)icosa-5,8,11,14-tetraen-19-ynamide]
SILAC ratio, No UV (A-DA probe versus No UV), Reep2 (Q8VCD6) [1]: 20.0
SILAC ratio, VAT1 (Q99536) [2]: 7.8
SILAC ratio of PTGS2, probe versus No UV ([3]; A-DA 5 μM): 3.2
SILAC ratio, PTGS2 (P35354) ([3]; A-DA probe vs NoUV): 3.2
SILAC ratio, LPCAT1 (Q8NF37) [4]: 20.0
SILAC ratio, DHRS3 (O75911) [5]: 15.6
SILAC ratio, PSAP (P07602) [6]: 20.0
SILAC ratio, SGPL1 (O95470) [7]: 19.7
SILAC ratio, EMD (O08579) [8]: 10.3
SILAC ratio, VDAC2 (P45880) [9]: 19.7
SILAC ratio, NPTN (Q9Y639) [10]: 20.0
SILAC ratio, UGT1A7 (Q9HAW7) [11]: 20.0
SILAC ratio, HSD17B12 (Q53GQ0) [12]: 20.0
SILAC ratio, COQ5 (Q5HYK3) [13]: 20.0
SILAC ratio, OPA3 (Q505D7) [14]: 20.0
SILAC ratio, DHRSX (Q8N5I4) [15]: 20.0
SILAC ratio, CERS2 (Q924Z4) [16]: 13.3
SILAC ratio, LPCAT3 (Q6P1A2) [17]: 20.0
SILAC ratio, VDAC1 (P21796) [18]: 20.0
SILAC ratio, HMOX2 (P30519) [19]: 20.0
SILAC ratio, RDH10 (Q8IZV5) [20]: 20.0
SILAC ratio, PGRMC2 (Q80UU9) [21]: 20.0
SILAC ratio, MARCH5 (Q3KNM2) [22]: 4.1
SILAC ratio, NSDHL (Q15738) [23]: 16.9
SILAC ratio, TOMM22 (Q9CPQ3) [24]: 18.4
SILAC ratio, ERMP1 (Q7Z2K6) [25]: 20.0
SILAC ratio, ANKLE2 (Q86XL3) [26]: 20.0
SILAC ratio, SQLE (Q14534) [27]: 20.0
SILAC ratio, TMEM48 (Q8VCB1) [28]: 20.0
SILAC ratio, No UV (A-DA probe versus No UV) [29]: 4.5
SILAC ratio, SEC11A (P67812) [30]: 20.0
SILAC ratio, No UV (A-DA probe versus No UV) [31]: 20.0
SILAC ratio, DNAJC1 (Q96KC8) [32]: 20.0
